A word on the EC50: it is the concentration at which the effect is half-maximal. By IC50 is commonly meant the midpoint of a concentration-inhibition curve.

These results are taken from US12325697B2 (Nimbus Clio, Inc., priority 2021, dated 2025).

Experiment [1] deals with Phospho-Zap70 (Y-319) in Jurkat wild-type (clone E6-1) cells. Nature of the experiment: Jurkat pZAP70 HTRF Assay. Type of experiment: cell-based. To be noted: Homo sapiens, anti-CD3 5 μg/ml, 3 hr, read-out: ZAP70 Jurkat EC50. A general note: Time-resolved FRET reads energy transfer from a long-lived donor to a nearby acceptor.
The target in experiment [2] is Recombinant human Cbl-b (aa 36-427) (Homo sapiens (Human), UniProt Q13191). Nature of the experiment: Cbl-b Biochemical Assay (TR-FRET). The conditions noted are these: read-out: TR-FRET hCbl-b IC50. Put shortly: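 IC50 from 4-parameter fit of % inhibition (DMSO max, reference-inhibitor min), duplicate ten-point series. Compound preincubated with 6 nM Cbl-b, then Src-Zap70 (1-2.5 nM)/0.5 mM ATP reaction 60 min RT; EDTA quench with labelled UBE2D2-Ub and streptavidin-terbium, 60 min, HTRF at 520 nm.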

For experiment [3], the system named is Jurkat (clone E6-1) cells, NFAT luciferase reporter. The experiment is described as follows: Jurkat Reporter Assay (NFAT Luciferase). Type of experiment: cell-based. The conditions noted are these: Homo sapiens, anti-CD3 stimulation, 6 hr, read-out: Jurkat NFAT EC50.

Chain of Recombinant human Cbl-b (aa 36-427) (Q13191 36-427): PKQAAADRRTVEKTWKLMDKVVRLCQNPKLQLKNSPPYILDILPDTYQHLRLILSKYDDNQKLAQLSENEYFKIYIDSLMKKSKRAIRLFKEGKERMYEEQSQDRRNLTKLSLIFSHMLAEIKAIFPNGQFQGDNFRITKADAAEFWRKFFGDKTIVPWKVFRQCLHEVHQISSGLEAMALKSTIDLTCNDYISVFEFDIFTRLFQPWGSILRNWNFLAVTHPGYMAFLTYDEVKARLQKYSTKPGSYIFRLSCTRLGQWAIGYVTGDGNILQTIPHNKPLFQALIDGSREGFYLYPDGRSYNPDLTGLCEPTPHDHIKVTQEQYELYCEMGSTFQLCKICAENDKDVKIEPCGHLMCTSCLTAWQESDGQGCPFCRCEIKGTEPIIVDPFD

`COCCNCc1cc2c(c(C(F)(F)F)c1)CN(c1cc(-c3ccc(C#N)cc3-c3nncn3C)cc(C3CC3)n1)C2=O` [AEN-1, 4-[2-Cyclopropyl-6-(6-{[(2-methoxyethyl)amino]methyl}-1-oxo-4-(trifluoromethyl)-3H-isoindol-2-yl)pyridin-4-yl]-3-(4-methyl-1,2,4-triazol-3-yl)benzonitrile]: the EC50 in experiment [1] and in experiment [3] was less than 200 nM each time. Besides, the IC50 in experiment [2] is not above 200 nM.

For `Cn1cnnc1-c1cc(C#N)ccc1-c1cc(C2CC2)nc(N2Cc3c(cc(CNCCO)cc3C(F)(F)F)C2=O)c1` [AEO-2, 4-[2-Cyclopropyl-6-(6-{[(2-hydroxyethyl)amino]methyl}-1-oxo-4-(trifluoromethyl)-3H-isoindol-2-yl)pyridin-4-yl]-3-(4-methyl-1,2,4-triazol-3-yl) benzonitrile], the EC50 in experiment [1] and in experiment [3] was less than 200 nM throughout. In addition, in experiment [2], the IC50 is not above 200 nM.

Consider `CCNc1cc(-c2c(-c3nncn3C)cnn2C)cc(N2Cc3c(cc(COCC4(O)CCC4)cc3C(F)(F)F)C2=O)n1` [AED-2, 2-[6-(Ethylamino)-4-[2-methyl-4-(4-methyl-1,2,4-triazol-3-yl)pyrazol-3-yl]pyridin-2-yl]-6-{[(1-hydroxycyclobutyl)methoxy]methyl}-4-(trifluoromethyl)-3H-isoindol-1-one], for which the EC50 is 200 to 1000 nM in experiment [1] and less than 200 nM in experiment [3]. In addition, the IC50 in experiment [2] was not above 200 nM.

`CCNc1cc(-c2ccc(C#N)cc2-c2nncn2C)cc(N2Cc3c(cc([C@H](O)CN(C)C)cc3C(F)(F)F)C2=O)n1` (single isomer, unassigned) [AGL-1]: the figures for the EC50 in experiment [1] and in experiment [3] were 200 to 1000 nM and less than 200 nM, respectively. Besides, the IC50 in experiment [2] is not above 200 nM.

On to `CCOc1cc(-c2ccc(F)cc2-c2nncn2C)cc(N2Cc3c(cc(CNCC4(O)CCC4)cc3C(F)(F)F)C2=O)n1` [AGQ-2, 2-{6-Ethoxy-4-[4-fluoro-2-(4-methyl-1,2,4-triazol-3-yl)phenyl]pyridin-2-yl}-6-({[(1-hydroxycyclobutyl)methyl]amino}methyl)-4-(trifluoromethyl)-3H-isoindol-1-one], for which the EC50 was 200 to 1000 nM in experiment [1] and less than 200 nM in experiment [3]. The IC50 in experiment [2] was not above 200 nM.

`Cn1cnnc1-c1ccccc1-c1cccc(N2Cc3c(cc(CNCC(C)(C)O)cc3C(F)(F)F)C2=O)c1` [AZ-2, 6-(((2-Hydroxy-2-methylpropyl)amino)methyl)-2-(2′-(4-methyl-4H-1,2,4-triazol-3-yl)-[1,1′-biphenyl]-3-yl)-4-(trifluoromethyl)isoindolin-1-one]: the EC50 in experiment [1] and in experiment [3] was less than 200 nM each time. Also, the IC50 in experiment [2] was not above 200 nM.

For `Cn1cnnc1-c1ccccc1-c1cc(C2CC2)nc(N2Cc3ccc(CNCC4(O)CCC4)cc3C2=O)c1` [AEH-1, 2-{6-Cyclopropyl-4-[2-(4-methyl-1,2,4-triazol-3-yl)phenyl]pyridin-2-yl}-6-({[(1-hydroxycyclobutyl)methyl]amino}methyl)-3H-isoindol-1-one], the EC50 in experiment [1] and in experiment [3] was less than 200 nM throughout. The IC50 in experiment [2] is not above 200 nM.

With `C[C@@H](NCC1(O)CCC1)c1cc2c(c(C(F)(F)F)c1)CN(c1cc(-c3ccccc3-c3nncn3C)cc(C3CC3)n1)C2=O` (single isomer, unassigned) [AFU-1], the EC50 in experiment [1] and in experiment [3] was less than 200 nM throughout. In experiment [2], the IC50 is not above 200 nM.

In the case of `Cn1cnnc1-c1cc(C#N)ccc1-c1cc(C2CC2)nc(N2Cc3ccc(CN[C@@H]4CCC[C@@H]4O)cc3C2=O)c1` [AHC-1, 4-{2-cyclopropyl-6-[6-({[(1R,2S)-2-hydroxycyclopentyl]amino}methyl)-1-oxo-3H-isoindol-2-yl]pyridin-4-yl}-3-(4-methyl-1,2,4-triazol-3-yl)benzonitrile], the EC50 in experiment [1] and in experiment [3] was less than 200 nM each time. The IC50 in experiment [2] was not above 200 nM.

Turning to `CC(=O)c1cc2c(c(C(F)(F)F)c1)CN(c1cc(-c3ccccc3-c3nncn3C)cc(C3CC3)n1)C2=O` [AFS-1, 6-Acetyl-2-{6-cyclopropyl-4-[2-(4-methyl-1,2,4-triazol-3-yl)phenyl]pyridin-2-yl}-4-(trifluoromethyl)-3H-isoindol-1-one], the EC50 lay in the range of 10000 to 50000 nM in experiment [1] and 200 to 1000 nM in experiment [3]. Moreover, the IC50 in experiment [2] is not above 200 nM.

As to `CCNc1cc(-c2ccc(C#N)cc2-c2nncn2C)cc(N2Cc3c(cc(COCC4(N)CCC4)cc3C(F)(F)F)C2=O)n1` [AGJ-2, 4-[2-(6-{[(1-aminocyclobutyl)methoxy]methyl}-1-oxo-4-(trifluoromethyl)-3H-isoindol-2-yl)-6-(ethylamino)pyridin-4-yl]-3-(4-methyl-1,2,4-triazol-3-yl)benzonitrile], the EC50 is 1000 to 10000 nM in experiment [1] and less than 200 nM in experiment [3]. Moreover, in experiment [2], the IC50 is not above 200 nM.

For `Cn1cnnc1-c1cc(C#N)ccc1-c1cccc(N2Cc3c(cc(CNCC4(O)CCC4)cc3C(F)(F)F)C2=O)c1` [ADV-1, 3′-[6-({[(1-Hydroxycyclobutyl)methyl]amino}methyl)-1-oxo-4-(trifluoromethyl)-3H-isoindol-2-yl]-2-(4-methyl-1,2,4-triazol-3-yl)-[1,1′-biphenyl]-4-carbonitrile], the concentration for a half-maximal effect (EC50) in experiment [1] and in experiment [3] was less than 200 nM throughout. For the same compound, the IC50 in experiment [2] was not above 200 nM.

Consider `CCNc1cc(-c2c(-c3nncn3C)cnn2C)cc(N2Cc3c(cc(COCC4(N)CCC4)cc3C(F)(F)F)C2=O)n1` [AGF-3, 6-{[(1-Aminocyclobutyl)methoxy]methyl}-2-[6-(ethylamino)-4-[2-methyl-4-(4-methyl-1,2,4-triazol-3-yl)pyrazol-3-yl]pyridin-2-yl]-4-(trifluoromethyl)-3H-isoindol-1-one], for which the EC50 in experiment [1] was 1000 to 10000 nM; in experiment [3], 200 to 1000 nM. The IC50 in experiment [2] is not above 200 nM.

For the compound `CCNc1cc(-c2ccc(C#N)cc2-c2nncn2C)cc(N2Cc3c(cccc3C(F)(F)F)C2=O)n1` [ADP-8, 4-[2-(Ethylamino)-6-[1-oxo-4-(trifluoromethyl)-3H-isoindol-2-yl]pyridin-4-yl]-3-(4-methyl-1,2,4-triazol-3-yl)benzonitrile], the EC50 was 1000 to 10000 nM in experiment [1] and less than 200 nM in experiment [3]. The IC50 in experiment [2] is not above 200 nM.

Consider `Cn1cnnc1-c1cc(F)ccc1-c1cc(C2CC2)nc(N2Cc3c(cc(CNCC4(O)CCC4)cc3C(F)(F)F)C2=O)c1` [AEY-1, 2-{6-Cyclopropyl-4-[4-fluoro-2-(4-methyl-1,2,4-triazol-3-yl)phenyl]pyridin-2-yl}-6-({[(1-hydroxycyclobutyl)methyl]amino}methyl)-4-(trifluoromethyl)-3H-isoindol-1-one], for which the EC50 in experiment [1] and in experiment [3] was less than 200 nM each time. The IC50 in experiment [2] was not above 200 nM.

Regarding `CCNc1cc(-c2ccc(C#N)cc2-c2nncn2C)cc(N2Cc3c(cc(COCC(C)(C)O)cc3C(F)(F)F)C2=O)n1` [AFE-1, 4-[2-(ethylamino)-6-{6-[(2-hydroxy-2-methylpropoxy)methyl]-1-oxo-4-(trifluoromethyl)-3H-isoindol-2-yl}pyridin-4-yl]-3-(4-methyl-1,2,4-triazol-3-yl)benzonitrile], the EC50 in experiment [1] was 200 to 1000 nM; in experiment [3] it was less than 200 nM. The IC50 in experiment [2] is not above 200 nM.

Regarding `Cn1cnnc1-c1cc(F)ccc1-c1cccc(N2Cc3ccc(CNCC4(O)CCC4)cc3C2=O)c1` [AHA-2, 2-(4′-Fluoro-2′-(4-methyl-4H-1,2,4-triazol-3-yl)-[1,1′-biphenyl]-3-yl)-6-((((1-hydroxycyclobutyl)methyl)amino)methyl) isoindolin-1-one], the EC50 is 200 to 1000 nM in experiment [1] and less than 200 nM in experiment [3]. The IC50 in experiment [2] is not above 200 nM.

As for `Cn1cnnc1-c1cnn(C)c1-c1cc(C2CC2)nc(N2Cc3ccc(CNCC4(O)CCCC4)cc3C2=O)c1` [AFQ-3, 2-{6-Cyclopropyl-4-[2-methyl-4-(4-methyl-1,2,4-triazol-3-yl)pyrazol-3-yl]pyridin-2-yl}-6-({[(1-hydroxycyclopentyl)methyl]amino}methyl)-3H-isoindol-1-one], the EC50 in experiment [1] and in experiment [3] was less than 200 nM each time. Moreover, in experiment [2], the IC50 was not above 200 nM.

In the case of `Cn1cnnc1-c1cc(C#N)ccc1-c1cc(C2CC2)nc(N2Cc3c(cc(CNCCOC(F)(F)F)cc3C(F)(F)F)C2=O)c1` [AGN-3, 4-{2-Cyclopropyl-6-[1-oxo-6-({[2-(trifluoromethoxy)ethyl]amino}methyl)-4-(trifluoromethyl)-3H-isoindol-2-yl]pyridin-4-yl}-3-(4-methyl-1,2,4-triazol-3-yl)benzonitrile], the EC50 is 200 to 1000 nM in experiment [1] and less than 200 nM in experiment [3]. Also, the IC50 in experiment [2] is not above 200 nM.

For `Cn1cnnc1-c1cc(F)ccc1-c1cccc(N2Cc3c(cc(CNCC4(O)CCC4)cc3C(F)(F)F)C2=O)c1` [AFN-3, 2-[4′-Fluoro-2′-(4-methyl-1,2,4-triazol-3-yl)-[1,1′-biphenyl]-3-yl]-6-({[(1-hydroxycyclobutyl)methyl]amino}methyl)-4-(trifluoromethyl)-3H-isoindol-1-one], the EC50 in experiment [1] and in experiment [3] was less than 200 nM each time. Further, the half-maximal inhibitory concentration (IC50) in experiment [2] was not above 200 nM.

As for `Cn1cnnc1-c1cc(Cl)ccc1-c1cc(C2CC2)nc(N2Cc3ccc(CNCC4(O)CCC4)cc3C2=O)c1` [AGW-6, 2-{4-[4-Chloro-2-(4-methyl-1,2,4-triazol-3-yl)phenyl]-6-cyclopropylpyridin-2-yl}-6-({[(1-hydroxycyclobutyl)methyl]amino}methyl)-3H-isoindol-1-one], the EC50 in experiment [1] and in experiment [3] was less than 200 nM each time. Also, the IC50 in experiment [2] was not above 200 nM.
